ChEMBL document CHEMBL1158853, “Laurencia rigida: chemical investigations of its antifouling dichloromethane extract” (J Nat Prod, 1997)
Where a name gives a salt, the structure may show the parent alone. The source made the active and inactive calls. The rule behind the calls is not given here.

Key:
Microbotryum violaceum [1] = experiment: Antifungal activity against Ustilago violacea at 34 ug by agar diffusion assay; assay type: functional; settings: read-out: IZ
Mycotypha microspora [2] = experiment: Antifungal activity against Mycotypha microspora at 34 ug by agar diffusion assay; assay type: functional; settings: read-out: IZ
[3] = system: Aspergillus pseudoglaucus; experiment: Antifungal activity Eurotium repens at 34 ug by agar diffusion assay; assay type: functional; settings: read-out: IZ
Fusarium oxysporum [4] = experiment: Antifungal activity against Fusarium oxysporum at 34 ug by agar diffusion assay; assay type: functional; settings: read-out: IZ
Priestia megaterium [5] = experiment: Antibacterial activity against Bacillus megaterium at 34 ug by agar diffusion assay; assay type: functional; settings: read-out: IZ
Escherichia coli [6] = experiment: Antibacterial activity against Escherichia coli at 34 ug by agar diffusion assay; assay type: functional; settings: read-out: IZ
[Chlorella] fusca [7] = Antialgal activity against Chlorella fusca at 34 ug by agar diffusion assay; assay type: functional; settings: Scenedesmus fuscus; read-out: IZ
Microbotryum violaceum [8] = experiment: Antifungal activity against Ustilago violacea at 33 ug by agar diffusion assay; assay type: functional; settings: read-out: IZ
Mycotypha microspora [9] = experiment: Antifungal activity against Mycotypha microspora at 33 ug by agar diffusion assay; assay type: functional; settings: read-out: IZ
[10] = system: Aspergillus pseudoglaucus; experiment: Antifungal activity Eurotium repens at 33 ug by agar diffusion assay; assay type: functional; settings: read-out: IZ
Fusarium oxysporum [11] = experiment: Antifungal activity against Fusarium oxysporum at 33 ug by agar diffusion assay; assay type: functional; settings: read-out: IZ
Priestia megaterium [12] = experiment: Antibacterial activity against Bacillus megaterium at 33 ug by agar diffusion assay; assay type: functional; settings: read-out: IZ
Escherichia coli [13] = experiment: Antibacterial activity against Escherichia coli at 33 ug by agar diffusion assay; assay type: functional; settings: read-out: IZ
[Chlorella] fusca [14] = Antialgal activity against Chlorella fusca at 33 ug by agar diffusion assay; assay type: functional; settings: Scenedesmus fuscus; read-out: IZ
Microbotryum violaceum [15] = experiment: Antifungal activity against Ustilago violacea at 40 ug by agar diffusion assay; assay type: functional; settings: read-out: IZ
Mycotypha microspora [16] = experiment: Antifungal activity against Mycotypha microspora at 40 ug by agar diffusion assay; assay type: functional; settings: read-out: IZ
[17] = system: Aspergillus pseudoglaucus; experiment: Antifungal activity Eurotium repens at 40 ug by agar diffusion assay; assay type: functional; settings: read-out: IZ
Fusarium oxysporum [18] = experiment: Antifungal activity against Fusarium oxysporum at 40 ug by agar diffusion assay; assay type: functional; settings: read-out: IZ
Priestia megaterium [19] = experiment: Antibacterial activity against Bacillus megaterium at 40 ug by agar diffusion assay; assay type: functional; settings: read-out: IZ
Escherichia coli [20] = experiment: Antibacterial activity against Escherichia coli at 40 ug by agar diffusion assay; assay type: functional; settings: read-out: IZ
[Chlorella] fusca [21] = Antialgal activity against Chlorella fusca at 40 ug by agar diffusion assay; assay type: functional; settings: Scenedesmus fuscus; read-out: IZ
Priestia megaterium [22] = experiment: Antibacterial activity against Bacillus megaterium at 50 ug by agar diffusion assay; assay type: functional, organism-based
Escherichia coli [23] = experiment: Antibacterial activity against Escherichia coli at 50 ug by agar diffusion assay; assay type: functional, organism-based
[Chlorella] fusca [24] = Antialgal activity against Chlorella fusca at 50 ug by agar diffusion assay; assay type: functional, organism-based; settings: Scenedesmus fuscus
Microbotryum violaceum [25] = experiment: Antifungal activity against Ustilago violacea at 60 ug by agar diffusion assay; assay type: functional, organism-based
Mycotypha microspora [26] = experiment: Antifungal activity against Mycotypha microspora at 60 ug by agar diffusion assay; assay type: functional; settings: read-out: IZ
[27] = system: Aspergillus pseudoglaucus; experiment: Antifungal activity Eurotium repens at 60 ug by agar diffusion assay; assay type: functional; settings: read-out: IZ
Fusarium oxysporum [28] = experiment: Antifungal activity against Fusarium oxysporum at 60 ug by agar diffusion assay; assay type: functional; settings: read-out: IZ
Microbotryum violaceum [29] = experiment: Antifungal activity against Ustilago violacea at 25 ug by agar diffusion assay; assay type: functional; settings: read-out: IZ
Mycotypha microspora [30] = experiment: Antifungal activity against Mycotypha microspora at 25 ug by agar diffusion assay; assay type: functional; settings: read-out: IZ
[31] = system: Aspergillus pseudoglaucus; experiment: Antifungal activity Eurotium repens at 25 ug by agar diffusion assay; assay type: functional; settings: read-out: IZ
Fusarium oxysporum [32] = experiment: Antifungal activity against Fusarium oxysporum at 25 ug by agar diffusion assay; assay type: functional; settings: read-out: IZ
Priestia megaterium [33] = experiment: Antibacterial activity against Bacillus megaterium at 25 ug by agar diffusion assay; assay type: functional; settings: read-out: IZ
Escherichia coli [34] = experiment: Antibacterial activity against Escherichia coli at 25 ug by agar diffusion assay; assay type: functional; settings: read-out: IZ
[Chlorella] fusca [35] = Antialgal activity against Chlorella fusca at 25 ug by agar diffusion assay; assay type: functional; settings: Scenedesmus fuscus; read-out: IZ
Amphibalanus amphitrite = experiment: Toxicity in Balanus amphitrite nauplii larvae assessed as survival rate; assay type: organism-based; settings: in vivo
Microbotryum violaceum [36] = experiment: Antifungal activity against Ustilago violacea at 135 ug by agar diffusion assay; assay type: functional; settings: read-out: IZ
Mycotypha microspora [37] = experiment: Antifungal activity against Mycotypha microspora at 135 ug by agar diffusion assay; assay type: functional; settings: read-out: IZ
[38] = system: Aspergillus pseudoglaucus; experiment: Antifungal activity Eurotium repens at 135 ug by agar diffusion assay; assay type: functional; settings: read-out: IZ
Fusarium oxysporum [39] = experiment: Antifungal activity against Fusarium oxysporum at 135 ug by agar diffusion assay; assay type: functional; settings: read-out: IZ
Priestia megaterium [40] = experiment: Antibacterial activity against Bacillus megaterium at 135 ug by agar diffusion assay; assay type: functional; settings: read-out: IZ
Escherichia coli [41] = experiment: Antibacterial activity against Escherichia coli at 135 ug by agar diffusion assay; assay type: functional; settings: read-out: IZ
[Chlorella] fusca [42] = Antialgal activity against Chlorella fusca at 135 ug by agar diffusion assay; assay type: functional; settings: Scenedesmus fuscus; read-out: IZ
Mycotypha microspora [43] = experiment: Antifungal activity against Mycotypha microspora at 50 ug by agar diffusion assay; settings: read-out: IZ
[44] = system: Aspergillus pseudoglaucus; experiment: Antifungal activity Eurotium repens at 50 ug by agar diffusion assay; settings: read-out: IZ
Fusarium oxysporum [45] = experiment: Antifungal activity against Fusarium oxysporum at 50 ug by agar diffusion assay; settings: read-out: IZ
Priestia megaterium [46] = experiment: Antibacterial activity against Bacillus megaterium at 85 ug by agar diffusion assay; assay type: functional; settings: read-out: IZ
Escherichia coli [47] = experiment: Antibacterial activity against Escherichia coli at 85 ug by agar diffusion assay; assay type: functional; settings: read-out: IZ
Microbotryum violaceum [48] = experiment: Antifungal activity against Ustilago violacea at 45 ug by agar diffusion assay; assay type: functional; settings: read-out: IZ
Mycotypha microspora [49] = experiment: Antifungal activity against Mycotypha microspora at 45 ug by agar diffusion assay; assay type: functional; settings: read-out: IZ
[50] = system: Aspergillus pseudoglaucus; experiment: Antifungal activity Eurotium repens at 45 ug by agar diffusion assay; assay type: functional; settings: read-out: IZ
Fusarium oxysporum [51] = experiment: Antifungal activity against Fusarium oxysporum at 45 ug by agar diffusion assay; assay type: functional; settings: read-out: IZ
Priestia megaterium [52] = experiment: Antibacterial activity against Bacillus megaterium at 45 ug by agar diffusion assay; assay type: functional; settings: read-out: IZ
Escherichia coli [53] = experiment: Antibacterial activity against Escherichia coli at 45 ug by agar diffusion assay; assay type: functional; settings: read-out: IZ
[Chlorella] fusca [54] = Antialgal activity against Chlorella fusca at 45 ug by agar diffusion assay; assay type: functional; settings: Scenedesmus fuscus; read-out: IZ
Priestia megaterium [55] = experiment: Antibacterial activity against Bacillus megaterium at 65 ug by agar diffusion assay; assay type: functional; settings: read-out: IZ
Escherichia coli [56] = experiment: Antibacterial activity against Escherichia coli at 65 ug by agar diffusion assay; assay type: functional; settings: read-out: IZ

SMILES: CC(=O)OC(C=C(C)C)C/C(C)=C1/CC=C(C)CC1 (stereo unspecified)
- zone of inhibition at 34 µg/disc (Microbotryum violaceum [1]): 0 mm
- zone of inhibition at 34 µg/disc (Mycotypha microspora [2]): 0 mm
- zone of inhibition at 34 µg/disc [3]: 0 mm
- zone of inhibition at 34 µg/disc (Fusarium oxysporum [4]): 0 mm
- zone of inhibition at 34 µg/disc (Priestia megaterium [5]): 0 mm
- zone of inhibition at 34 µg/disc (Escherichia coli [6]): 0 mm
- zone of inhibition at 34 µg/disc ([Chlorella] fusca [7]): 3 mm

SMILES: CC1=CC[C@]2(CC1)C(C)=C[C@@H](O)[C@H](Br)C2(C)C
- zone of inhibition at 33 µg/disc (Microbotryum violaceum [8]): 0 mm
- zone of inhibition at 33 µg/disc (Mycotypha microspora [9]): 3 mm
- zone of inhibition at 33 µg/disc [10]: 0 mm
- zone of inhibition at 33 µg/disc (Fusarium oxysporum [11]): 0 mm
- zone of inhibition at 33 µg/disc (Priestia megaterium [12]): 0 mm
- zone of inhibition at 33 µg/disc (Escherichia coli [13]): 0 mm
- zone of inhibition at 33 µg/disc ([Chlorella] fusca [14]): 3 mm

SMILES: C[C@@H]1CCC23[C@H]1CC[C@@]2(C)C[C@H](C)[C@]3(C)O (stereo partly specified)
- zone of inhibition at 40 µg/disc (Microbotryum violaceum [15]): 0 mm
- zone of inhibition at 40 µg/disc (Mycotypha microspora [16]): 0 mm
- zone of inhibition at 40 µg/disc [17]: 0 mm
- zone of inhibition at 40 µg/disc (Fusarium oxysporum [18]): 0 mm
- zone of inhibition at 40 µg/disc (Priestia megaterium [19]): 0 mm
- zone of inhibition at 40 µg/disc (Escherichia coli [20]): 0 mm
- zone of inhibition at 40 µg/disc ([Chlorella] fusca [21]): 2 mm

SMILES: C=C1CC[C@H](Br)C(C)(C)[C@]12CC=C(C)CC2
- Activity (Priestia megaterium [22]): inactive
- Activity (Escherichia coli [23]): inactive
- Activity ([Chlorella] fusca [24]): inactive

SMILES: CC1=CC[C@@]2(CC1)C(C)=CC[C@@H](Br)C2(C)C
- Activity (Priestia megaterium [22]): inactive
- Activity (Escherichia coli [23]): inactive
- Activity ([Chlorella] fusca [24]): inactive

SMILES: C[C@@H]1C[C@@H]([C@H](O)CC2CC(=O)NC(=O)C2)C(=O)[C@@H](C)C1 [CYCLOHEXIMIDE]
- Activity (Microbotryum violaceum [25]): Active
- zone of inhibition at 60 µg/disc (Mycotypha microspora [26]): 4 mm
- zone of inhibition at 60 µg/disc [27]: 5 mm
- zone of inhibition at 60 µg/disc (Fusarium oxysporum [28]): 3 mm

SMILES: C=C1C[C@H](O)[C@H](Br)C(C)(C)[C@]12CC=C(C)CC2 [DESCHLOROELATOL]
- zone of inhibition at 25 µg/disc (Microbotryum violaceum [29]): 0 mm
- zone of inhibition at 25 µg/disc (Mycotypha microspora [30]): 20 mm
- zone of inhibition at 25 µg/disc [31]: 18 mm
- zone of inhibition at 25 µg/disc (Fusarium oxysporum [32]): 0 mm
- zone of inhibition at 25 µg/disc (Priestia megaterium [33]): 1 mm
- zone of inhibition at 25 µg/disc (Escherichia coli [34]): 0 mm
- zone of inhibition at 25 µg/disc ([Chlorella] fusca [35]): 2 mm
- Activity (Amphibalanus amphitrite): Toxic

SMILES: C=C1C[C@H](O)[C@H](Br)C(C)(C)[C@@]12CCC(C)=C(Cl)C2 [ELATOL]
- zone of inhibition at 135 µg/disc (Microbotryum violaceum [36]): 3 mm
- zone of inhibition at 135 µg/disc (Mycotypha microspora [37]): 25 mm
- zone of inhibition at 135 µg/disc [38]: 25 mm
- zone of inhibition at 135 µg/disc (Fusarium oxysporum [39]): 7 mm
- zone of inhibition at 135 µg/disc (Priestia megaterium [40]): 2 mm
- zone of inhibition at 135 µg/disc (Escherichia coli [41]): 0 mm
- Activity (Amphibalanus amphitrite): Toxic
- zone of inhibition at 135 µg/disc ([Chlorella] fusca [42]): 0 mm

SMILES: Clc1ccc(COC(Cn2ccnc2)c2ccc(Cl)cc2Cl)c(Cl)c1 (stereo unspecified) [MICONAZOLE NITRATE]
- zone of inhibition at 50 µg/disc (Mycotypha microspora [43]): 7 mm
- zone of inhibition at 50 µg/disc [44]: 18 mm
- zone of inhibition at 50 µg/disc (Fusarium oxysporum [45]): 1 mm

SMILES: CC1(C)S[C@@H]2[C@H](NC(=O)Cc3ccccc3)C(=O)N2[C@H]1C(=O)O [PENICILLIN G POTASSIUM]
- zone of inhibition at 85 µg/disc (Priestia megaterium [46]): 20 mm
- zone of inhibition at 85 µg/disc (Escherichia coli [47]): 0 mm

SMILES: C=C1C[C@H](O)[C@H](Br)C(C)(C)[C@]12C=C[C@@](C)(O)CC2 [RIGIDOL]
- zone of inhibition at 45 µg/disc (Microbotryum violaceum [48]): 5 mm
- zone of inhibition at 45 µg/disc (Mycotypha microspora [49]): 4 mm
- zone of inhibition at 45 µg/disc [50]: 0 mm
- zone of inhibition at 45 µg/disc (Fusarium oxysporum [51]): 0 mm
- zone of inhibition at 45 µg/disc (Priestia megaterium [52]): 0 mm
- zone of inhibition at 45 µg/disc (Escherichia coli [53]): 0 mm
- zone of inhibition at 45 µg/disc ([Chlorella] fusca [54]): 0 mm

SMILES: CN[C@@H]1[C@H](O[C@H]2[C@H](O[C@H]3[C@H](O)[C@@H](O)[C@H](N=C(N)N)[C@@H](O)[C@@H]3N=C(N)N)O[C@@H](C)[C@]2(O)C=O)O[C@@H](CO)[C@H](O)[C@H]1O [STREPTOMYCIN SULFATE]
- zone of inhibition at 65 µg/disc (Priestia megaterium [55]): 5 mm
- zone of inhibition at 65 µg/disc (Escherichia coli [56]): 3 mm
